According to patent US20220380371A1, “MLL1 INHIBITORS AND ANTI-CANCER AGENTS” (NOVARTIS AG, priority 2019, published 2022):
Read-outs that look alike come from different tables or passages of the source.

What was measured:
[1] = molecular target: wild type MLL1 four-member complex (MLL1-4C) (Homo sapiens, UniProt Q03164); assay: MLL1 LC-MS Assay; assay type: biochemical
Experimental: The compounds of the present disclosure were serially and separately diluted 3-fold in DMSO to obtain a total of eight or twelve concentrations. Then the test compounds at each concentration (120 nL of each) were transferred by Mosquito into white Proxiplate plus 384-well microplate (PerkinElmer). Solutions (6 μL) of 60 nM wild type MLL1 four-member complex (MLL1-4C) and 5 μM SAM in the reaction buffer (20 mM Tris-HCl, pH 8.0, 0.01% Tween 20, 1 mM DTT, 10 mM MgCl2, 0.01% BSA) were added to the wells that were then incubated with the test compound for 20 min. A 6 μL solution of 20 μM of the peptide substrate H3K4me0 (histone H3[1-21]-Biotin) in the reaction buffer was added to initiate each reaction. The final components in the reaction solution include 30 nM MLL1-4C, 2.5 μM SAM, and 10 μM H3K4me0 with varying concentration of the compounds. A positive control consisted of 30 nM MLL1-4C, 2.5 μM SAM, and 10 μM substrate in the absence of the test compound, and a negative control consisted of 2.5 μM SAM, and 10 μM substrate only. Each reaction was incubated at rt for 120 min, then stopped by addition of 3 μL per of quench solution (2.5% TFA with 320 nM d4-SAH). The reaction mixture was centrifuged (Eppendorf centrifuge 5810, Rotor A-4-62) for 2 min at 2000 rpm. The SAH production from the enzymatic assays were monitored by LC-MS/MS on an API 4000 triple quadrupole mass spec with Turbolon Spray (Applied Biosystem) coupled with Prominenece UFLC (Shimazu). The level of SAH production were then normalized based on the values coming from the positive and negative controls to give percent enzyme activities. The data were then fit to a dose response equation using the program Helios (Novartis) to get the IC50 values of the test compounds.

[2] = test system: H3K4me3 in MV4-11 cells; assay: MV4-11 H3K4me3 Cellular ELISA Assay; assay type: cell-based; conditions: Homo sapiens, MV4-11, 48 h
Experimental: MV4-11 H3K4me3 Cellular ELISA Assay
MV4-11 (ATCC® CRL-9591™) was cultured with RPMI1640 medium (Thermo Fisher Scientific, cat #11875) supplemented with 10% FBS (Thermo Fisher Scientific, cat #10099141) and 50 U/ml Penicillin-Streptomycin (Thermo Fisher Scientific, cat #10378016) in humidified incubator at 37° C., 5% CO2.
200 nL compounds dissolved in DMSO were serially diluted at 1:3 ratio for 12 points starting from 10 mM and dispensed into each wells of cell culture plates (PDL-coated ViewPlate-384 Black, FTC, PerkinElmer, #6007710). 3,750 MV4-11 cells in 40 μL culture medium were seeded into each well and treated with desired concentration for 48 hours. After treatment, wash cells with cold phosphate based buffer (PBS, pH 7.4) and aspirate the remaining PBS buffer. Crude histone lysate was extracted by 40 μL 0.5M HCl for 1 hour in 4° C. following neutralization by adding 32 μL neutralization buffer (0.5M Sodium phosphate dibasic, pH ˜12.5, 1.25 mM Dithiothreitol, Promega #V3151, Protease Inhibitor Cocktail, Sigma #8340) for each well. 5 μL and 20 μL of histone lysate was loaded to ELISA plate (384 Well Plates, PE HB, White, 6005620) for detection of total H3 and H3K4me3, respectively. Shake the plates gently in 4° C. for overnight. After histone binding, plates were washed with 80 μL PBS/T (PBS with 0.05% Tween-20) and blocked with 50 μL 3% BSA diluted in PBS/T per well for 1 hour. Incubate wells with primary antibody for 1 hour at room temperature using anti-H3K4me3 (CST #9727) and anti-total H3 (CST #9715) diluted 1:2000 in 3% BSA. Plates were then washed with PBS/T for 3 times and incubated with horseradish peroxidase (HRP) conjugated secondary antibody (CST #7074, 1:5000) for 1 hour at room temperature. The abundance of H3K4me3 and total H3 were measured by ECL substrates chemiluminescence (Pierce, #34080) on a plate reader (PerkinElmer EnVison 2104 Mutilable Reader). Percentage inhibition was calculated against DMSO control after normalization of H3K4me3 signal to H3 signal for individual samples. The data were then fit to a dose response curve using GraphPad Prism for IC50 calculation.

[3] = test system: MV4-11 cells; assay: MV4-11 6-Day Cell Growth CTG (CellTiter-Glo) Assay; assay type: cell-based; conditions: Homo sapiens, MV4-11, 144 h, MV4-11 cell growth CellTiter-Glo, 6 days
Experimental: MV4-11 6-Day Cell Growth CTG (CellTiter-Glo) Assay
Acute myeloid leukemia cell MV4-11 (ATCC® CRL-9591™) was cultured with RPMI 1640 medium (Thermo Fisher Scientific, cat #11875) supplemented with 10% FBS (Thermo Fisher Scientific, cat #10099141) in humidified incubator at 37° C., 5% CO2. To assess the effect of MLL1 inhibition on cell growth, the compound of the present invention was dissolved in DMSO and serially diluted at 1:3 for 12 points starting from 10 mM then 200 nL for the replicate of each dose per well was dispensed to Viewplate-384 Black (Perkin Elmer). Exponentially growing MV4-11 cells were seeded at the density of 300 cells per well in 40 μL to the plate, so the final compound working concentration starts from 50 μM. After 6 days, 40 μL CellTiter-Glo (Promega, cat #G7573) was added into the cell culture well and luminescence was read with Envision (Perkin Elmer) to determine the viable cells. The percentage inhibition was calculated against the samples treated with DMSO only and the data were used for dose response curve fitting in GraphPad Prism to get the IC50 of representative compound of present invention, which reflects the inhibition of MLL1 activity.

Compound | IC50 ([1]; read-out: LCMS) | IC50 [2] | IC50 [3] | IC50 ([1]; read-out: MLL1 LCMS)
Nc1ncnc2c1ncn2Cc1c(Br)cc(Cl)cc1N1CC[C@](N)(c2nnn[nH]2)C1 [Example 83, (R)-9-(2-(3-amino-3-(1H-tetrazol-5-yl)pyrrolidin-1-yl)-6-bromo-4-chlorobenzyl)-9H-purin-6-amine] | < 50 nM | < 1900 nM | < 2000 nM | 
CCc1cc(-c2ccccc2F)cc(N2CC[C@](N)(C(=O)NC3CC3)C2)c1Cn1cnc2c(N)ncnc21 [Example 92, (R)-3-amino-1-(4-((6-amino-9H-purin-9-yl)methyl)-5-ethyl-2′-fluoro-[1,1′-biphenyl]-3-yl)-N-cyclopropylpyrrolidine-3-carboxamide] | < 50 nM | < 1900 nM | < 2000 nM | 
Nc1ncnc2c1ncn2Cc1c(N2CC[C@](N)(C(=O)NC3CC3)C2)cc(-c2cccs2)cc1C(F)(F)F [Example 94] | < 50 nM | < 1900 nM | < 2000 nM | 
CCc1cc(-c2cccnc2)cc(N2CC[C@](N)(C(=O)NC3CC3)C2)c1Cn1cnc2c(N)ncnc21 [Example 95] | < 50 nM | < 1900 nM | < 2000 nM | 
CCc1cc(-c2cnccn2)cc(N2CC[C@](N)(C(=O)NC3CC3)C2)c1Cn1cnc2c(N)ncnc21 [Example 100, (R)-3-amino-1-(2-((6-amino-9H-purin-9-yl)methyl)-3-ethyl-5-(pyrazin-2-yl)phenyl)-N-cyclopropylpyrrolidine-3-carboxamide] | < 50 nM | < 1900 nM | < 2000 nM | 
Nc1ncnc2c1ncn2Cc1c(N2CC[C@](N)(C(=O)NC3CC3)C2)cc(CN2CCOCC2)c(F)c1Cl [Example 103, (R)-3-amino-1-(2-((6-amino-9H-purin-9-yl)methyl)-3-chloro-4-fluoro-5-(morpholinomethyl)phenyl)-N-cyclopropylpyrrolidine-3-carboxamide] | < 50 nM | < 1900 nM | < 2000 nM | 
N#Cc1c(Cl)ccc(N2CC[C@](N)(C(=O)NC3CC3)C2)c1Cn1cnc2c(N)ncnc21 [Example 104] | < 50 nM | < 1900 nM | < 2000 nM | 
CCc1cc(Cl)cc(N2CC[C@](N)(CO)C2)c1Cn1cnc2c(N)ncnc21 [Example 108] | < 50 nM | < 1900 nM | < 2000 nM | 
COC[C@@]1(N)CCN(c2ccc3ccccc3c2Cn2cnc3c(N)ncnc32)C1 [Example 109] | 50 to 100 nM | < 1900 nM | < 2000 nM | 
Nc1ncnc2c1ncn2Cc1c(N2CC[C@](N)(C(=O)NC3CC34CCOCC4)C2)ccc(F)c1C(F)(F)F (stereo partly drawn) [Example 126] | 50 to 100 nM | < 1900 nM | < 2000 nM | 
Nc1ncnc2c1ncn2Cc1c(N2CC[C@](N)(C(=O)NC3CCOC3)C2)ccc(F)c1C(F)(F)F (stereo partly drawn) [Example 129] | < 50 nM | < 1900 nM | < 2000 nM | 
COC1CC2(C1)CC2NC(=O)[C@@]1(N)CCN(c2ccc(F)c(C(F)(F)F)c2Cn2cnc3c(N)ncnc32)C1 (stereo partly drawn) [Example 130] | < 50 nM | < 1900 nM | < 2000 nM | 
Nc1ncnc2c1ncn2Cc1c(N2CC[C@](N)(C(=O)N3CCn4nccc4C3)C2)ccc(F)c1C(F)(F)F [Example 137] | 50 to 100 nM | < 1900 nM | 2000 to 3000 nM | 
CCCNC(=O)CCNC(=O)[C@@]1(N)CCN(c2ccc(F)c(C(F)(F)F)c2Cn2cnc3c(N)ncnc32)C1 [Example 139] | 50 to 100 nM | < 1900 nM | < 2000 nM | 
Nc1ncnc2c1ncn2Cc1c(N2CC[C@](N)(C(=O)NC3CC3)C2)ccc(F)c1C1CCCC1 [Example 158] |  | < 1900 nM | < 2000 nM | < 50 nM
[2H]C([2H])([2H])C([2H])([2H])NC(=O)[C@@]1(N)CCN(c2cc(Cl)cc(Br)c2Cn2cnc3c(N)ncnc32)C1 [Example 159] |  | < 1900 nM | 2000 to 3000 nM | < 50 nM
CCc1cc(Cl)cc(N2CC[C@](N)(C(=O)NC(C)C)C2)c1Cn1cnc2c(N)ncnc21 [Example 161] |  | < 1900 nM | < 2000 nM | < 50 nM
COCc1c(Cl)cc(Cl)c(N2CC[C@](N)(C(=O)NC3CC3)C2)c1Cn1cnc2c(N)ncnc21 [Example 162] |  | < 1900 nM | 2000 to 3000 nM | 50 to 100 nM

Other lines, results leading:

IC50 ([1]; read-out: LCMS) | IC50 [2] | IC50 [3] | IC50 ([1]; read-out: MLL1 LCMS) | Compound
50 to 100 nM | < 1900 nM | < 2000 nM |  | CCc1cc(-c2cscn2)cc(N2CC[C@](N)(C(=O)NC3CC3)C2)c1Cn1cnc2c(N)ncnc21 [Example 98, (R)-3-amino-1-(2-((6-amino-9H-purin-9-yl)methyl)-3-ethyl-5-(thiazol-4-yl)phenyl)-N-cyclopropylpyrrolidine-3-carboxamide]
< 50 nM | < 1900 nM | < 2000 nM |  | Nc1ncnc2c1ncn2Cc1c(N2CC[C@](N)(C(=O)NC3CC3)C2)cc(Cl)c(Cl)c1CN1CCOCC1 [Example 105]
< 50 nM | 1900 to 3000 nM | 2000 to 3000 nM |  | Nc1ncnc2c1ncn2Cc1c(I)c(F)c2c(c1N1CC[C@](N)(C(=O)NC3CC3)C1)OCC2 [Example 111]
< 50 nM | < 1900 nM | < 2000 nM |  | CCSc1c(Cl)ccc(N2CC[C@](N)(C(=O)NC3CC3)C2)c1Cn1cnc2c(N)ncnc21 [Example 113]
50 to 100 nM | < 1900 nM | < 2000 nM |  | Nc1ncnc2c1ncn2Cc1c(N2CC[C@](N)(C(=O)NCc3cccnc3O)C2)ccc(F)c1C(F)(F)F [Example 120]
< 50 nM | < 1900 nM | < 2000 nM |  | Nc1ncnc2c1ncn2Cc1c(N2CC[C@](N)(C(=O)NCCc3c[nH]cn3)C2)ccc(F)c1C(F)(F)F [Example 121]
< 50 nM | < 1900 nM | < 2000 nM |  | Nc1ncnc2c1ncn2Cc1c(N2CC[C@](N)(C(=O)NCC3CC3(F)F)C2)ccc(F)c1C(F)(F)F (stereo partly drawn) [Example 122]
50 to 100 nM | < 1900 nM | < 2000 nM |  | C[C@@H](NC(=O)[C@@]1(N)CCN(c2ccc(F)c(C(F)(F)F)c2Cn2cnc3c(N)ncnc32)C1)C1CCOCC1 [Example 124]
 | < 1900 nM | < 2000 nM | 50 to 100 nM | Nc1ncnc2c1ncn2Cc1c(N2CC[C@](N)(c3nnn[nH]3)C2)ccc(Cl)c1I [Example 156]
 | < 1900 nM | < 2000 nM | 50 to 100 nM | Nc1ncnc2c1ncn2Cc1c(N2CCC(N)(C(=O)NC3CC3)C2)ccc(C(F)(F)F)c1Cl (stereo not drawn) [Example 160]
